Experimental data as given in patent publication US9346798B2, “Dihydrobenzoxazine and tetrahydroquinoxaline sodium channel inhibitors” (AMGEN INC., priority 2012, dated 2016).

Experiments:
Assay type in all cases: cell-based
Nav 1.7 [1] = target: T1, Nav 1.7 (Homo sapiens (Human), UniProt Q15858); experiment: Nav 1.7 in vitro assay, IonWorks Quattro (IWQ) population patch-clamp; conditions: HEK 293 cells stably transfected with Nav 1.7; 26th pulse to -20 mV
Nav 1.7 [2] = target: T1, Nav 1.7; experiment: Nav 1.7 in vitro PX assay, PatchXpress whole cell voltage clamp; conditions: HEK 293 cells stably transfected with human Nav1.7; for inhibition at 4.9 µM: HEK293, values marked *, read-out: Nav 1.7 PX percent inhibition at 4.9 μM; for IC50: partially inactivated state (20 to 50% inactivation)
Method in brief: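 Partially inactivated channels (20–50% inactivation at holding potential) were probed on automated patch clamp in stably transfected HEK293 cells, stepping to −10 mV for 20 msec every 10 s (0.1 Hz).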

Nav 1.5 = Nav 1.5 (Homo sapiens (Human), UniProt Q14524); experiment: Nav 1.5 in vitro assay, IonWorks Quattro (IWQ) population patch-clamp; conditions: HEK 293 cells stably transfected with Nav 1.5; 26th pulse to -20 mV
Sequence of Nav 1.5 (Q14524 whole entry): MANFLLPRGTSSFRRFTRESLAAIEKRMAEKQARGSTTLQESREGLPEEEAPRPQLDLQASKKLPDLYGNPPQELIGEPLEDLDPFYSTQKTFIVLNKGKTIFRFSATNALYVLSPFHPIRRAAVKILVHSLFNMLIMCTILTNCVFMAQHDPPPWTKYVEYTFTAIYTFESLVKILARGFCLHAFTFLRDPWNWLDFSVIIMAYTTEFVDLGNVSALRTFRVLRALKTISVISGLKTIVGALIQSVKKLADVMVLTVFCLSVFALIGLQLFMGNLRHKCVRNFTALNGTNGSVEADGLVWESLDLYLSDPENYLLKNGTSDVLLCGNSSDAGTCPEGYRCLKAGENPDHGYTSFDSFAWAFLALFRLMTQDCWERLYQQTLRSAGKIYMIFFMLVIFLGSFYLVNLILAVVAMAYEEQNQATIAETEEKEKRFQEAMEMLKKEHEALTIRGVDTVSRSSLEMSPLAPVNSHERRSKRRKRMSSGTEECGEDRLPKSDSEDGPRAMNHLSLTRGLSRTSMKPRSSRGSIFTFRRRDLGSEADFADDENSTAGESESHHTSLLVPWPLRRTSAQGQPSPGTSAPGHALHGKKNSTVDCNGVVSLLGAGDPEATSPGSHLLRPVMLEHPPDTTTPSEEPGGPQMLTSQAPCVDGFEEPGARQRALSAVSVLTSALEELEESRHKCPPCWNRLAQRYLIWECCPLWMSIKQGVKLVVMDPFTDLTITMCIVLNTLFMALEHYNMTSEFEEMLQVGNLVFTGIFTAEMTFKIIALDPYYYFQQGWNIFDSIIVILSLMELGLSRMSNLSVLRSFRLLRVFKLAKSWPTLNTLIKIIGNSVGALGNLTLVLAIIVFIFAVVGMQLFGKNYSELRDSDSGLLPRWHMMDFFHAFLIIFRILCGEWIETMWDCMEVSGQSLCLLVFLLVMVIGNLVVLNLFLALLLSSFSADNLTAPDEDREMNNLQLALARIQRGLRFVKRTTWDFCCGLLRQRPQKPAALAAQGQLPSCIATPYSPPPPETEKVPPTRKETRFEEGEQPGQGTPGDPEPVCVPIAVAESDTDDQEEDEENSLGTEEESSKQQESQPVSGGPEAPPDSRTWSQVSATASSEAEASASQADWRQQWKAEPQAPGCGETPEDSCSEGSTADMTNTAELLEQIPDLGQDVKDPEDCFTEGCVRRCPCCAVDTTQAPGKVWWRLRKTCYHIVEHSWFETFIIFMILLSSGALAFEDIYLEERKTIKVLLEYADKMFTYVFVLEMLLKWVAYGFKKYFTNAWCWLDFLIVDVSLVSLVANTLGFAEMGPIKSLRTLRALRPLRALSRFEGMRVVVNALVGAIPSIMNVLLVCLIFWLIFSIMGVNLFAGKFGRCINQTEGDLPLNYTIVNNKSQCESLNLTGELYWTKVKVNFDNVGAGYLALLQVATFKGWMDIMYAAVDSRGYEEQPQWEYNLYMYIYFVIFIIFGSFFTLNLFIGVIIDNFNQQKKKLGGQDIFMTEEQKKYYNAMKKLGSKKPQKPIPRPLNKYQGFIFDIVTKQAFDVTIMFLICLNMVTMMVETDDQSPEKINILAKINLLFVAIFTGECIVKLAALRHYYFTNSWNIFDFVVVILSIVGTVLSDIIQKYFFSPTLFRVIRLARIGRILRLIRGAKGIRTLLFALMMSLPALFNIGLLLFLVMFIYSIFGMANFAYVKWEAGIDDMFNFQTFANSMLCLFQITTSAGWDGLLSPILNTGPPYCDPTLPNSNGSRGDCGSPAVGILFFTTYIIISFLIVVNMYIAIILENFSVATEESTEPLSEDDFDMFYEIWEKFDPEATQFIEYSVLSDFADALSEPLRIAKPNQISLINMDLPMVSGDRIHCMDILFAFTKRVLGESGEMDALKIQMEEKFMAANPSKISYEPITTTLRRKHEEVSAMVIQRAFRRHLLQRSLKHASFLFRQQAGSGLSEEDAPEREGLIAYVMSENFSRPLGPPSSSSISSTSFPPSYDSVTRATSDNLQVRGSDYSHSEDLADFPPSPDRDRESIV

T1 sequence (Q15858 whole entry): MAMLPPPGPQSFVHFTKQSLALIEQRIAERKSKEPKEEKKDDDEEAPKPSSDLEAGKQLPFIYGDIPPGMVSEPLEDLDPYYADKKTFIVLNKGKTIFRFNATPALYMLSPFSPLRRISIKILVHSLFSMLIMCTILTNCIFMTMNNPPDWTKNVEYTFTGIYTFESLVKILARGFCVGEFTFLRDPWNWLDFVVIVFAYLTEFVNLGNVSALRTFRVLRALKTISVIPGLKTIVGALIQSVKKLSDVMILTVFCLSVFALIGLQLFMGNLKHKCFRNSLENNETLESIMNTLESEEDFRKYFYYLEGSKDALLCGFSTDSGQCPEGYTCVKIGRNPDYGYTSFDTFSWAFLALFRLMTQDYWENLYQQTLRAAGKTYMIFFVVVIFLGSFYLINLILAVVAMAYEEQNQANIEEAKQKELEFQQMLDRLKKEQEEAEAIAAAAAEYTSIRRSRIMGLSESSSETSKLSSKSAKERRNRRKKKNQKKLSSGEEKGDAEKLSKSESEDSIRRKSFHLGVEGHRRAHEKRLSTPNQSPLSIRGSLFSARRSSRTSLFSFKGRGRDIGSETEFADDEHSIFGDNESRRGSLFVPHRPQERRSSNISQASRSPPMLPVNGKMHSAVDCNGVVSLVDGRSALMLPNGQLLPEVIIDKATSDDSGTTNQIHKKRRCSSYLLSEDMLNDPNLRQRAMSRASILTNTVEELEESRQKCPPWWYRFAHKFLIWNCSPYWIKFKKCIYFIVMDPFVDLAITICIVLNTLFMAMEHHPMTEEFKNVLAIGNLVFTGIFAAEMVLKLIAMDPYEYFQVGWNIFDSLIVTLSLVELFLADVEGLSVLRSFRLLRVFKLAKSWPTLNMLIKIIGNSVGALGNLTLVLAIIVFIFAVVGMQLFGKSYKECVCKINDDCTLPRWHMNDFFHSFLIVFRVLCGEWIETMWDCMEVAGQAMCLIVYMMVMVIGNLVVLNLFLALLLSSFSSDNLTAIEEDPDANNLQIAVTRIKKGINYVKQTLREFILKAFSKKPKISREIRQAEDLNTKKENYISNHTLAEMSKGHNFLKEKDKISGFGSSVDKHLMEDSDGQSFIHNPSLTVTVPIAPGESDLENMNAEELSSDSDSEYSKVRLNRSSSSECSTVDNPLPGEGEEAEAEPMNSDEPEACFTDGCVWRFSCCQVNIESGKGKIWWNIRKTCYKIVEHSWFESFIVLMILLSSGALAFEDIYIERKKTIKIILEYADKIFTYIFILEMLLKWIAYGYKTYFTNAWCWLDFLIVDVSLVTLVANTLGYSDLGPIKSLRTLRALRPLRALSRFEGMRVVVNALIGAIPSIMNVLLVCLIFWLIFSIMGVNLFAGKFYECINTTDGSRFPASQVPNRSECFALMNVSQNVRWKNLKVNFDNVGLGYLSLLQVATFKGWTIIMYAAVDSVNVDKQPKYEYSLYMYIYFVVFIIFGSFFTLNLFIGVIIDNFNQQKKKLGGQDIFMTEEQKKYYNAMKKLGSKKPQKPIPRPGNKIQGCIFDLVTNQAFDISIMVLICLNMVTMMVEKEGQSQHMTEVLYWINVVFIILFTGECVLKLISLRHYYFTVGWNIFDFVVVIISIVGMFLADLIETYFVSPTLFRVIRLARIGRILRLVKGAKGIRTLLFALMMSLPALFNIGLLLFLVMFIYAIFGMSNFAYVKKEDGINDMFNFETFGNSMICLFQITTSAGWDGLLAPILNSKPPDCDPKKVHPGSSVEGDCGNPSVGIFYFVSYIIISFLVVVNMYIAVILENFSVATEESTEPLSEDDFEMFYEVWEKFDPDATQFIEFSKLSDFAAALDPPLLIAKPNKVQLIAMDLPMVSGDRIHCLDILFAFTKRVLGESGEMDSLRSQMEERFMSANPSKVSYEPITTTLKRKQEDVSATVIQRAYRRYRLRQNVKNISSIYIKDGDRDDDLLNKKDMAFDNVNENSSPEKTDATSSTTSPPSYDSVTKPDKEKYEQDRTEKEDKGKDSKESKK

SMILES | IC50 (Nav 1.7 [1]) [nM] | inhibition at 4.9 µM (Nav 1.7 [2]) [%] | IC50 (Nav 1.7 [2]) [nM] | IC50 (Nav 1.5) [µM]
O=S(=O)(Nc1ccc(F)cn1)c1ccc2c(c1)OCCN2c1ccc(C(F)(F)F)cc1Cl [Example 17, 4-(2-Chloro-4-(Trifluoromethyl)Phenyl)-N-(5-Fluoropyridin-2-Yl)-3,4-Dihydro-2H-Benzo[B][1,4]Oxazine-7-Sulfonamide] | 3630 | 24.1 |  | > 10
O=S(=O)(Nc1ncns1)c1ccc2c(c1)OCCN2c1ccc(C(F)(F)F)cc1C1=CCNCC1 [Example 7, 4-(2-(1,2,3,6-Tetrahydropyridin-4-Yl)-4-(Trifluoromethyl)Phenyl)-N-(1,2,4-Thiadiazol-5-Yl)-3,4-Dihydro-2H-Benzo[B][1,4]Oxazine-7-Sulfonamide] | 4.4 |  | 23.7 | 0.349
O=S(=O)(Nc1nccs1)c1ccc2c(c1)OCCN2c1ccc(C(F)(F)F)cc1Br [Example 43, 4-(2-Bromo-4-(Trifluoromethyl)Phenyl)-N-(Thiazol-2-Yl)-3,4-Dihydro-2H-Benzo[B][1,4]Oxazine-7-Sulfonamide] | 115 |  | 975 | 1.85
Nc1cc(-c2cc(C(F)(F)F)ccc2N2CCOc3cc(S(=O)(=O)Nc4ncns4)ccc32)ccn1 [Example 29, 4-(2-(2-Aminopyridin-4-Yl)-4-(Trifluoromethyl)Phenyl)-N-(1,2,4-Thiadiazol-5-Yl)-3,4-Dihydro-2H-Benzo[B][1,4]Oxazine-7-Sulfonamide] | 9.5 |  | 79 | 0.634
Cc1ccc(Cl)c(N2CCOc3cc(S(=O)(=O)Nc4nccs4)ccc32)c1 [Example 67, 4-(2-Chloro-5-Methylphenyl)-N-(Thiazol-2-Yl)-3,4-Dihydro-2H-Benzo[B][1,4]Oxazine-7-Sulfonamide 2,2,2-Trifluoroacetate] | 381 |  | 442 | 5.33
O=S(=O)(Nc1nccs1)c1ccc2c(c1)OCCN2c1ccc2ncsc2c1 [Example 71, 4-(Benzo[D]Thiazol-6-Yl)-N-(Thiazol-2-Yl)-3,4-Dihydro-2H-Benzo[B][1,4]Oxazine-7-Sulfonamide 2,2,2-Trifluoroacetate] | 605 |  | 5320 | > 10
O=S(=O)(Nc1ncns1)c1ccc2c(c1)OCCN2c1ccccc1 [Example 30, 4-Phenyl-N-(1,2,4-Thiadiazol-5-Yl)-3,4-Dihydro-2H-Benzo[B][1,4]Oxazine-7-Sulfonamide] | 142 |  | 756 | > 10
O=S(=O)(Nc1ncccn1)c1ccc2c(c1)OCCN2c1ccc(C(F)(F)F)cc1Cl [Example 16, 4-(2-Chloro-4-(Trifluoromethyl)Phenyl)-N-(Pyrimidin-2-Yl)-3,4-Dihydro-2H-Benzo[B][1,4]Oxazine-7-Sulfonamide] | 1860 |  | 11900 | > 10
CN1CC=C(c2cc(C(F)(F)F)ccc2N2CCOc3cc(S(=O)(=O)Nc4ncns4)ccc32)CC1 [Example 22, 4-(2-(1-Methyl-1,2,3,6-Tetrahydropyridin-4-Yl)-4-(Trifluoromethyl)Phenyl)-N-(1,2,4-Thiadiazol-5-Yl)-3,4-Dihydro-2H-Benzo[B][1,4]Oxazine-7-Sulfonamide 2,2,2-Trifluoroacetate] | 10.5 |  | 134 | > 10
N#Cc1ccccc1N1CCOc2cc(S(=O)(=O)Nc3nccs3)ccc21 [Example 58, 4-(2-Cyanophenyl)-N-(Thiazol-2-Yl)-3,4-Dihydro-2H-Benzo[B][1,4]Oxazine-7-Sulfonamide 2,2,2-Trifluoroacetate] | 225 |  | 2550 | 6.3
O=C(Oc1ccc([N+](=O)[O-])cc1)N1CCOc2cc(S(=O)(=O)Nc3nccs3)ccc21 [Example 197, 4-nitrophenyl 7-(N-(thiazol-2-yl)sulfamoyl)-2H-benzo[b][1,4]oxazine-4(3 H)-carboxylate] | 2530 | 27.8 |  | > 10
COCCOc1ccc(N2CCOc3cc(S(=O)(=O)Nc4ncns4)ccc32)cc1 [Example 39, 4-(4-(2-Methoxyethoxy)Phenyl)-N-(1,2,4-Thiadiazol-5-Yl)-3,4-Dihydro-2H-Benzo[B][1,4]Oxazine-7-Sulfonamide] | 333 |  | 9220 | > 10
Cc1nsc(NS(=O)(=O)c2ccc3c(c2)OCCN3c2ccc(C(F)(F)F)cc2Cl)n1 [Example 10, 4-(2-Chloro-4-(Trifluoromethyl)Phenyl)-N-(3-Methyl-1,2,4-Thiadiazol-5-Yl)-3,4-Dihydro-2H-Benzo[B][1,4]Oxazine-7-Sulfonamide] | 4610 |  | 6750 | > 10

The next lines start with results.

IC50 (Nav 1.7 [1]) [nM] | inhibition at 4.9 µM (Nav 1.7 [2]) [%] | IC50 (Nav 1.7 [2]) [nM] | SMILES | IC50 (Nav 1.5) [µM]
679 |  | 2430 | O=S(=O)(Nc1cscn1)c1ccc2c(c1)OCCN2c1ccc(C(F)(F)F)cc1Br [Example 61, 4-(2-Bromo-4-(Trifluoromethyl)Phenyl)-N-(Thiazol-4-Yl)-3,4-Dihydro-2H-Benzo[B][1,4]Oxazine-7-Sulfonamide] | > 10
309 |  | 5170 | COc1ccncc1N1CCOc2cc(S(=O)(=O)Nc3nccs3)ccc21 [Example 190, 4-(4-Methoxypyridin-3-Yl)-N-(Thiazol-2-Yl)-3,4-Dihydro-2H-Benzo[B][1,4]Oxazine-7-Sulfonamide] | > 10
3780 | 33.9 |  | O=S(=O)(Nc1nccs1)c1ccc2c(c1)OCCN2c1ccc2nccnc2c1 [Example 69, 4-(Quinoxalin-6-Yl)-N-(Thiazol-2-Yl)-3,4-Dihydro-2H-Benzo[B][1,4]Oxazine-7-Sulfonamide 2,2,2-Trifluoroacetate] | 4.44
66.5 |  | 782 | Cn1nccc1-c1ccccc1N1CCOc2cc(S(=O)(=O)Nc3nccs3)ccc21 [Example 148, 4-(2-(1-Methyl-1H-pyrazol-5-yl)phenyl)-N-(thiazol-2-yl)-3,4-dihydro-2H-benzo[b][1,4]oxazine-7-sulfonamide] | > 10
104 |  | 850 | O=S(=O)(Nc1nccs1)c1ccc2c(c1)OCCN2c1cc(Cl)ccc1Cl [Example 180, 4-(2,5-Dichlorophenyl)-N-(Thiazol-2-Yl)-3,4-Dihydro-2H-Benzo[B][1,4]Oxazine-7-Sulfonamide 2,2,2-Trifluoroacetate] | 6.94
823 |  | 1890 | CC1COc2cc(S(=O)(=O)Nc3nccs3)ccc2N1c1ccc(C(F)(F)F)cc1C#N (racemic) [Example 96, 4-(2-Cyano-4-(Trifluoromethyl)Phenyl)-3-Methyl-N-(Thiazol-2-Yl)-3,4-Dihydro-2H-Benzo[B][1,4]Oxazine-7-Sulfonamide] | 1.4
660 |  | 18100 | COc1ccc(N2CCOc3cc(S(=O)(=O)Nc4nccs4)ccc32)cc1C#N [Example 118, 4-(3-Cyano-4-methoxyphenyl)-N-(thiazol-2-yl)-3,4-dihydro-2H-benzo[b][1,4]oxazine-7-sulfonamide] | > 10
107 |  | 1990 | O=S(=O)(Nc1nccs1)c1ccc2c(c1)OCCN2c1ccccc1-c1ccncc1 [Example 147, 4-(2-(Pyridin-4-yl)phenyl)-N-(thiazol-2-yl)-3,4-dihydro-2H-benzo[b][1,4]oxazine-7-sulfonamide] | > 10
327 |  | 4970 | O=S(=O)(Nc1ccncn1)c1ccc2c(c1)OCCN2c1ncc(C(F)(F)F)cc1Cl [Example 99, 4-(3-Chloro-5-(Trifluoromethyl)Pyridin-2-Yl)-N-(Pyrimidin-4-Yl)-3,4-Dihydro-2H-Benzo[B][1,4]Oxazine-7-Sulfonamide] | > 10
208 |  | 772 | C[C@@H]1COc2cc(S(=O)(=O)Nc3nccs3)ccc2N1c1ccc(C(F)(F)F)cc1C#N (single isomer, unassigned) [Example 97] | 0.851
683 |  | 11100 | O=S(=O)(Nc1nccs1)c1ccc2c(c1)OCCN2c1cccc2cccnc12 [Example 166, 4-(Quinolin-8-Yl)-N-(Thiazol-2-Yl)-3,4-Dihydro-2H-Benzo[B][1,4]Oxazine-7-Sulfonamide 2,2,2-Trifluoroacetate] | > 10
28.5 |  | 309 | COc1cc(C#N)ccc1N1C[C@H](C)Oc2cc(S(=O)(=O)Nc3nccs3)ccc21 (single isomer, unassigned) [Example 107] | > 10
2980 | 27.4 |  | O=S(=O)(Nc1nccs1)c1ccc2c(c1)OCCN2c1ncc(F)cc1F [Example 136, 4-(3,5-Difluoropyridin-2-yl)-N-(thiazol-2-yl)-3,4-dihydro-2H-benzo[b][1,4]oxazine-7-sulfonamide] | > 10
78.5 |  | 566 | CC1CN(c2ccc(C(F)(F)F)cc2C#N)c2ccc(S(=O)(=O)Nc3nccs3)cc2O1 (racemic) [Example 93, 4-(2-Cyano-4-(Trifluoromethyl)Phenyl)-2-Methyl-N-(Thiazol-2-Yl)-3,4-Dihydro-2H-Benzo[B][1,4]Oxazine-7-Sulfonamide] | 1.84
103 |  | 684 | O=S(=O)(Nc1nccs1)c1ccc2c(c1)OCCN2c1ccc(Cl)cc1OC(F)F [Example 193, 4-(4-Chloro-2-(Difluoromethoxy)Phenyl)-N-(Thiazol-2-Yl)-3,4-Dihydro-2H-Benzo[B][1,4]Oxazine-7-Sulfonamide 2,2,2-Trifluoroacetate] | 1.56
33.5 |  | 1050 | COc1ncc(Cl)cc1N1CCOc2cc(S(=O)(=O)Nc3nccs3)ccc21 [Example 111, 4-(5-Chloro-2-methoxypyridin-3-yl)-N-(thiazol-2-yl)-3,4-dihydro-2H-benzo[b][1,4]oxazine-7-sulfonamide] | 3.03
